Data set [1] relates to LRRK2(WT) and LRRK2(G2019S). Further details: method as in PMID 34515301. The following applies: cited from earlier work.
The conditions of data set [2]: LRRK2-IN-1 ref 18; HG-10-102-01 ref 19; cited from earlier work.
For another data set, the target named is T1, LRRK2^RCKW (Homo sapiens, UniProt Q5S007).
T1 construct: His6-Z (TEV site) (N, cleaved yes); made in house; host or cells: Sf9 insect cells (baculovirus)
T1 sequence (Q5S007 1327-2527): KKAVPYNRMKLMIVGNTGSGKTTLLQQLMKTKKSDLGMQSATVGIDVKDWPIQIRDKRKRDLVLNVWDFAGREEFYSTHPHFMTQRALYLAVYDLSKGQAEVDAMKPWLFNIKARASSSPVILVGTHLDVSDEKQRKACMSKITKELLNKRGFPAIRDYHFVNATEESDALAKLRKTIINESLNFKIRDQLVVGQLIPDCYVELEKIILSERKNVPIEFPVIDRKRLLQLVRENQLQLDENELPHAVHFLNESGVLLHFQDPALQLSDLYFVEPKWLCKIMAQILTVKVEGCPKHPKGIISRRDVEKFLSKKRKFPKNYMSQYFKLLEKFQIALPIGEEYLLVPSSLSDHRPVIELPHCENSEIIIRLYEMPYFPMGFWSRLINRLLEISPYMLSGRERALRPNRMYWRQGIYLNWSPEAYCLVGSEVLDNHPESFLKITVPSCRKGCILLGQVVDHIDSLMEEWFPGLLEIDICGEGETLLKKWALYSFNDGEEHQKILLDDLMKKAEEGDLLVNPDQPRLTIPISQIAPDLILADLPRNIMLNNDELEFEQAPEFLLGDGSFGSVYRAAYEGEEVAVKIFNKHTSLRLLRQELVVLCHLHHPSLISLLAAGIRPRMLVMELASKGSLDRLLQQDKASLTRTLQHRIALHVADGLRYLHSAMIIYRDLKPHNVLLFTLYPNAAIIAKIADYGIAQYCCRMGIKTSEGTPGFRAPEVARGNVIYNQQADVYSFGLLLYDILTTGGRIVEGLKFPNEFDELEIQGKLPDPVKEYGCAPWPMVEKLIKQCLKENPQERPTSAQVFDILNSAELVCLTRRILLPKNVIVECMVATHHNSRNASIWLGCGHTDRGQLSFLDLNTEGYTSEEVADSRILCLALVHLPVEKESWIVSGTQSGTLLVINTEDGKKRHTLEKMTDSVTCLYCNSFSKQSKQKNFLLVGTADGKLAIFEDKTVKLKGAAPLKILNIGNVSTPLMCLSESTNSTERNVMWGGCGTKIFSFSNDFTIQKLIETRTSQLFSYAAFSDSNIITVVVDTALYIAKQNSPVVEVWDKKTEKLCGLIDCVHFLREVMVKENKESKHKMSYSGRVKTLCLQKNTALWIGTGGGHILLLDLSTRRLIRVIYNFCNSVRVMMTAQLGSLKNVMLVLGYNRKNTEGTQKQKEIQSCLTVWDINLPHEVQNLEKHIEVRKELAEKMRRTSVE
In words: MS-based kinase activity assay (Rab8A phosphorylation). Type of data set: biochemical. Conditions: 50 nM LRRK2^RCKW, 5 μM Rab8A, 1 mM ATP, ESI-MS readout.

Another data set has as its system LRRK2^KW (G2019S). In words: Differential scanning fluorimetry (DSF) thermal shift assay, G2019S mutant. Type of data set: binding. Conditions: inhibitor 10 μM. (In general: In DSF a fluorescence change marks the thermal transition of the protein.)

Method for LRRK2^KW (G2019S): The assay was performed according to a previously established protocol ([37]). Briefly, a solution of 4 μM LRRK2^KW protein in assay buffer [20 mM Hepes (pH 7.4), 150 mM NaCl, 0.5 mM Tris (2-carboxyethyl) phosphine (TCEP), 20 μM GDP, 2.5 mM MgCl2, and 0.5% glycerol] was mixed 1:1000 with SYPRO Orange (Sigma-Aldrich). The inhibitors to be tested were added to a final concentration of 10 μM. Twenty microliters of each sample were placed in a 96-well plate and heated gradually from 25° to 95°C. Fluorescence was monitored using an MX3005P real-time PCR instrument (Stratagene) with excitation and emission filters set to 465 and 590 nm, respectively. Data were analyzed with the MxPro software.
From the text for LRRK2^RCKW: To compare the activity of the selected LRRK2 inhibitors, we developed a mass spectrometry (MS)–based kinase activity assay using an established endogenous substrate. We subjected the Rab8A GTPase domain (residues 6 to 176) to LRRK2^RCKW phosphorylation in the presence of varying concentrations of a given inhibitor and directly quantified the amount of phosphorylated Rab8A (pRab8A) by ESI-MS (fig. S1C).
To determine the IC50 values for a set of LRRK2 inhibitors, the phosphorylation of the LRRK2 substrate Rab8A was assessed by applying an MS-based activity assay. LRRK2^RCKW protein (50 nM) was mixed with 5 μM substrate and varying concentrations of the inhibitors in assay buffer [20 mM Hepes (pH 7.4), 150 mM NaCl, 0.5 mM TCEP, 20 μM GDP, 2.5 mM MgCl2, and 0.5% glycerol]. The reaction was started by adding 1 mM ATP and incubated at room temperature (RT). […] Data were acquired using the MassHunter LC/MS Data Acquisition software and analyzed using the BioConfirm vB.08.00 tool (both Agilent Technology) (https://www.agilent.com/en/product/software-informatics/mass-spectrometry-software, RRID: SCR_016657). The peak intensities of the unphosphorylated and phosphorylated Rab8A species were quantified and the relative kinase activity was calculated. […]

For the compound `Cc1ccc(C(=O)Nc2ccc(CN3CCN(C)CC3)c(C(F)(F)F)c2)cc1C#Cc1cnc2[nH]ncc2c1` [GZD-824], the “IC50 for LRRK2(WT) lower than that for LRRK2(G2019S)” value in data set [1] (in vitro phosphorylation assay) is on record as ~ 4 fold.

`COc1cc(C(=O)N2CCC(N3CCN(C)CC3)CC2)ccc1Nc1ncc2c(n1)N(C)c1ccccc1C(=O)N2C` [LRRK2-IN-1]: in data set [2], the brain penetrance result was “low brain penetrance”. In addition, the “IC50 (inhibition of Rab8A phosphorylation), in words” value against LRRK2^RCKW is on record as “high nanomolar range”.

Take `CNc1nc(Nc2ccc(C(=O)N3CCOCC3)cc2OC)ncc1Cl` [HG-10-102-01]: the brain penetrance result in data set [2] is listed as “brain penetrant”.

With `CC1CN(c2cc(-c3n[nH]c4ccc(OC5(C)CC5)cc34)ncn2)CC(C)O1` (stereo not drawn) [MLi-2], in data set [1] (purified full-length LRRK2, in vitro assay with a peptide kinase substrate), the “inhibition of LRRK2(G2019S) better than LRRK2(WT)” value was ~ 2 fold. Further, the ΔTM in the data set on LRRK2^KW (G2019S) is 18 K.

These data come from article PMC10691770, “Inhibition of Parkinson’s disease–related LRRK2 by type I and type II kinase inhibitors: Activity and structures” (Science Advances, 2023).
